The subject of assay [1] is LoVo. As to the kind of experiment: Cytotoxicity against human LoVo cells after 72 hrs by sulforhodamine B assay. The assay is classed as functional, cell-based. In general terms: The SRB assay estimates cell density from bound dye.
Assay [2] has as its system LoVo. The assay can be described thus: Potency index, ratio of sulforaphane IC50 to compound IC50 for human LoVo cells. Type of assay: functional.
Assay [3] has as its system LoVo. The assay can be described thus: Potency index, ratio of benzyl isothiocyanate IC50 to compound IC50 for human LoVo cells. The assay is classed as functional.
A short description of assay [4]: Cytotoxicity against human LoVo/DX cells after 72 hrs by sulforhodamine B assay. Type of assay: functional, cell-based.
The subject of assay [5] is LoVo. As to the kind of experiment: Induction of apoptosis in human LoVo cells assessed as increase in caspase3/7 activity at 15 uM using Ac-DEVD-ACC as substrate pretreated for 24 hrs followed by substrate addition measured for 2 hrs by fluorescence assay relative to control. The assay is classed as functional.
Assay [6] has as its system LoVo. The assay can be described thus: Induction of apoptosis in human LoVo cells assessed as late apoptotic cells at 15 uM after 24 hrs by APC-Annexin-V/propidium iodide staining based flow cytometric method relative to control. The assay is classed as functional.
The test system of assay [7] is LoVo. The assay can be described thus: Induction of apoptosis in human LoVo cells assessed as loss of mitochondrial membrane potential at 15 uM after 24 hrs by JC-1 staining based flow cytometric method relative to control. The assay is classed as functional. Background: In flow cytometry, cells or beads pass a laser one at a time.
A short description of assay [8]: Induction of apoptosis in human LoVo/DX cells assessed as loss of mitochondrial membrane potential at 15 uM after 24 hrs by JC-1 staining based flow cytometric method relative to control. The assay is classed as functional.
A further assay has as its system LoVo/DX. As to the kind of experiment: Induction of apoptosis in human LoVo/DX cells assessed as late apoptotic cells at 15 uM after 24 hrs by APC-Annexin-V/propidium iodide staining based flow cytometric method relative to control. The assay is classed as functional.
The test system of assay [9] is LoVo. As to the kind of experiment: Induction of apoptosis in human LoVo cells assessed as necrotic cells at 15 uM after 24 hrs by APC-Annexin-V/propidium iodide staining based flow cytometric method (reference value: 10%). The assay is classed as functional.
Assay [10] in a line: Induction of apoptosis in human LoVo/DX cells assessed as increase in caspase3/7 activity at 15 uM using Ac-DEVD-ACC as substrate pretreated for 24 hrs followed by substrate addition measured for 2 hrs by fluorescence assay relative to control. The assay is classed as functional.
Assay [11] deals with LoVo. As to the kind of experiment: Induction of apoptosis in human LoVo cells assessed as increase in early apoptotic cells at 15 uM after 24 hrs by APC-Annexin-V/propidium iodide staining based flow cytometric method relative to control. The assay is classed as functional.
The test system of a further assay is HL-60. As to the kind of experiment: Cytotoxicity against human HL60 cells after 72 hrs by sulforhodamine B assay. Type of assay: functional, cell-based. As to conditions: HL-60, 72 h.
For a further assay, the system named is HL60/MX2. As to the kind of experiment: Cytotoxicity against human HL60/MX2 cells after 72 hrs by sulforhodamine B assay. The assay is classed as functional, cell-based. As to conditions: HL60/MX2, 72 h.
The nature of assay [12]: Resistance index, ratio of IC50 for human HL60/MX2 cells to IC50 for human HL60 cells. The assay is classed as functional.

Calls of active or inactive are those of the source. No cut-off for these calls is given here.

As usually defined, the IC50 is the midpoint of a concentration-inhibition curve. A lower IC50 goes with inhibition by little substance. For the compound `CC(C)OP(=O)(CCCN=C=S)OC(C)C`, the IC50 came out at 2.6 µM in the assay with LoVo [1] and 3.3 µM in assay [4]. For the same compound, the entries for the “Ratio IC50” value in the assay on LoVo [2] and in the assay with LoVo [3] were 10 and 5, respectively.

As for `CCOP(=O)(CCCCCCCCCCN=C=S)OCC`, the half-maximal inhibitory concentration (IC50) with LoVo [1] turned out to be 10 µM; in assay [4], 13.1 µM.

Regarding `O=P(CCCCCN=C=S)(OCc1ccccc1)OCc1ccccc1`, the IC50 in the assay with LoVo [1] stood at 3.5 µM; in assay [4], 8.5 µM.

With `O=P(CCCCN=C=S)(OCC1CCCO1)OCC1CCCO1` (stereo not drawn), the IC50 stood at 5 µM in the assay on LoVo [1] and 7.6 µM in assay [4].

On to `O=P(CCCCN=C=S)(Oc1ccccc1)Oc1ccccc1`, for which the results for the IC50 (in the assay on LoVo [1]; in [4]) were 2.3 µM and 3.1 µM, respectively. Also, the results for the “Ratio IC50” value with LoVo [2] and with LoVo [3] were 10 and 5, respectively.

As to `CC(C)COP(=O)(CCCCCN=C=S)OCC(C)C`, the IC50 was 2.4 µM in the assay with LoVo [1] and 5.1 µM in [4]. For the same compound, the entries for the “Ratio IC50” value with LoVo [2] and in the assay on LoVo [3] were 10 and 5, respectively.

Consider `O=P(CCN=C=S)(Oc1ccccc1)Oc1ccccc1`, for which the values for the 50% inhibitory concentration (IC50) (with LoVo [1]; in [4]) were 10.5 µM and 11.4 µM, respectively.

On to `O=P(CCCCCCN=C=S)(OCc1ccccc1)OCc1ccccc1`, for which the half-inhibitory concentration (IC50) turned out to be 4.6 µM in the assay with LoVo [1] and 9.2 µM in [4].

Regarding `CC(C)OP(=O)(CCCCCN=C=S)OC(C)C`, the IC50 with LoVo [1] came out at 2.6 µM; in assay [4] it was 7.9 µM. The “Ratio IC50” value is listed as 10 in the assay with LoVo [2] and 5 with LoVo [3].

On to `O=P(CCCCN=C=S)(OCc1ccccc1)OCc1ccccc1`, for which the half-maximal inhibitory concentration (IC50) in the assay on LoVo [1] was determined as 3.8 µM; in assay [4], 8.4 µM.

`C[S+]([O-])CCCCN=C=S` (stereo not drawn) [SULFORAPHANE]: the “fold change (FC)” value with LoVo [5] stood at 1.41; in [10], 2.52. Besides, the figures for the 50% inhibitory concentration (IC50) (in the assay with LoVo [1]; in assay [4]) were 22.9 µM and 18.1 µM, respectively. Moreover, the outcome in the assay on LoVo [6], with LoVo/DX and in the assay on LoVo [9] was Active. The Activity (in the assay with LoVo [7]; in [8]) was 35% in each case. Moreover, the outcome in the assay on LoVo [11] was inactive.

On to `CCC(C)OP(=O)(CCCCN=C=S)OC(C)CC` (stereo not drawn), for which the IC50 came out at 4.3 µM in the assay with LoVo [1] and 3.6 µM in [4].

On to `O=P(CCCCCN=C=S)(OCC(F)(F)F)OCC(F)(F)F`, for which the half-maximal inhibitory concentration (IC50) amounted to 5.4 µM with LoVo [1] and 10.5 µM in assay [4].

Take `O=P(CCCN=C=S)(Oc1ccccc1)Oc1ccccc1`: the results for the IC50 (with LoVo [1]; in assay [4]) were 4.2 µM and 10.2 µM, respectively.

Regarding `O=C1c2c(O)ccc(O)c2C(=O)c2c(NCCNCCO)ccc(NCCNCCO)c21` [MITOXANTRONE], the IC50 in the assay with HL-60 came out at 0.004 µM; in the assay with HL60/MX2, 0.148 µM. Also, in assay [12], the “Ratio IC50” value is reported as 37.

As to `CC(C)(C)COP(=O)(CCCCCCN=C=S)OCC(C)(C)C`, the IC50 was determined as 7.4 µM with LoVo [1] and 11.2 µM in [4].

Turning to `CC(C)OP(=O)(CCCCN=C=S)OC(C)C`, the figures for the concentration for half-maximal inhibition (IC50) (in the assay on LoVo [1]; in assay [4]) were 2.5 µM and 5 µM, respectively. In addition, the “Ratio IC50” value in the assay with LoVo [2] is 10; with LoVo [3] it was 5.

As for `O=P(CCCCN=C=S)(OCC(F)(F)F)OCC(F)(F)F`, the IC50 with LoVo [1] stood at 4.9 µM; in assay [4] it was 5.7 µM.

For the compound `CC(C)(C)COP(=O)(CCCN=C=S)OCC(C)(C)C`, the results for the half-maximal inhibitory concentration (IC50) (in the assay with LoVo [1]; in assay [4]) were 10.2 µM and 14 µM, respectively.

As to `O=P(CCCCCCN=C=S)(OCC(F)(F)F)OCC(F)(F)F`, the IC50 in the assay with LoVo [1] was determined as 4.2 µM; in [4] it was 8.8 µM.

For the compound `CC(C)(C)COP(=O)(CCCCCN=C=S)OCC(C)(C)C`, the half-inhibitory concentration (IC50) stood at 8.9 µM in the assay with LoVo [1] and 10.8 µM in [4].

As for `O=P(CCN=C=S)(OCC(F)(F)F)OCC(F)(F)F`, the concentration for half-maximal inhibition (IC50) is 5.5 µM with LoVo [1] and 8.2 µM in [4].

For `COP(=O)(CCCCCCN=C=S)OC`, the IC50 in the assay with LoVo [1] is 5.4 µM; in assay [4], 9.9 µM.

Turning to `C=CCN=C=S` [ALLYL ISOTHIOCYANATE], the IC50 was determined as 21.2 µM in the assay with LoVo [1] and 29.3 µM in assay [4].

With `CCOP(=O)(CCCCCN=C=S)OCC`, the half-maximal inhibitory concentration (IC50) in the assay with LoVo [1] came to 2.8 µM; in assay [4], 3.1 µM. The entries for the “Ratio IC50” value in the assay with LoVo [2] and in the assay with LoVo [3] were 10 and 5, respectively.

On to `C=CCOP(=O)(CCCCN=C=S)OCC=C`, for which the IC50 in the assay on LoVo [1] came to 5.2 µM; in assay [4], 3.7 µM.

With `O=P(CCCN=C=S)(OCC(F)(F)F)OCC(F)(F)F`, the IC50 stood at 3.9 µM in the assay with LoVo [1] and 4.7 µM in assay [4].

Take `CCOP(=O)(CCCCN=C=S)OCC`: the half-maximal inhibitory concentration (IC50) with LoVo [1] amounted to 4.6 µM; in assay [4], 10.2 µM.

Consider `CCOP(=O)(CCN=C=S)OCC`, for which the values for the half-maximal inhibitory concentration (IC50) (in the assay with LoVo [1]; in assay [4]) were 4.5 µM and 6.1 µM, respectively.

Take `COP(=O)(CCCCN=C=S)OC`: the IC50 in the assay on LoVo [1] was 5.4 µM; in [4] it was 6.5 µM.

As for `COP(=O)(CCN=C=S)OC`, the concentration for half-maximal inhibition (IC50) was found to be 12.3 µM in the assay with LoVo [1] and 12.4 µM in [4].

For `CC[C@H](C)OP(=O)(CCCCN=C=S)O[C@@H](C)CC`, the concentration for half-maximal inhibition (IC50) is 4.2 µM with LoVo [1] and 4.5 µM in [4].

Take `C#CCOP(=O)(CCCCN=C=S)OCC#C`: the half-inhibitory concentration (IC50) is 3.2 µM with LoVo [1] and 11.3 µM in assay [4].

With `O=P(CCCCCN=C=S)(Oc1ccccc1)Oc1ccccc1`, the IC50 in the assay on LoVo [1] amounted to 2.2 µM; in assay [4], 4.6 µM. Besides, the “Ratio IC50” value in the assay with LoVo [2] is recorded as 10; in the assay with LoVo [3] it was 5.

For `CC(C)COP(=O)(CCCCN=C=S)OCC(C)C`, the results for the IC50 (with LoVo [1]; in [4]) were 3.3 µM and 10.4 µM, respectively.

Regarding `CCOP(=O)(CCCN=C=S)OCC`, the half-inhibitory concentration (IC50) with LoVo [1] worked out at 2.9 µM; in assay [4], 3 µM. In addition, the “Ratio IC50” value with LoVo [2] was 10; in the assay with LoVo [3] it was 5.

For `CC(C)(C)COP(=O)(CCCCN=C=S)OCC(C)(C)C`, the IC50 amounted to 10.2 µM in the assay with LoVo [1] and 10.6 µM in assay [4].

For `COP(=O)(CCCN=C=S)OC`, the IC50 in the assay on LoVo [1] was determined as 9.3 µM; in [4], 9.6 µM.

For `CC(C)[C@@H]1CC[C@@H](C)C[C@H]1OP(=O)(CCCCN=C=S)O[C@@H]1C[C@H](C)CC[C@H]1C(C)C`, the half-maximal inhibitory concentration (IC50) in the assay on LoVo [1] worked out at 5.1 µM; in [4], 5.8 µM.

Consider `COP(=O)(CCCCCN=C=S)OC`, for which the IC50 with LoVo [1] came to 5 µM; in assay [4], 9.4 µM.

Turning to `CC(C)OP(=O)(CCN=C=S)OC(C)C`, the results for the IC50 (with LoVo [1]; in assay [4]) were 2.7 µM and 3.6 µM, respectively. The “Ratio IC50” value with LoVo [2] stood at 10; in the assay with LoVo [3], 5.

On to `CC(C)COP(=O)(CCCN=C=S)OCC(C)C`, for which the concentration for half-maximal inhibition (IC50) with LoVo [1] is 2.4 µM; in assay [4], 5.6 µM. Also, the “Ratio IC50” value is on record as 10 in the assay on LoVo [2] and 5 in the assay with LoVo [3].

Source of the values: ChEMBL document CHEMBL4028815, “Novel phosphonate analogs of sulforaphane: Synthesis, in vitro and in vivo anticancer activity” (Eur J Med Chem, 2017).
